Patent US12275731B2, “Azaindole inhibitors of wild-type and mutant forms of LRRK2” (DANA-FARBER CANCER INSTITUTE, INC., priority 2018, dated 2025)

Assays:
Assay in all cases: KinomeScan profiling
Format in all cases: binding
ACVRL1 = target: T1, ACVRL1 (Homo sapiens, UniProt P37023); details: ACVRL1, 1 μM; read-out: % control
T1 construct: purchased KinomeScan®
How it was run: (§1)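 Single-point competition binding screen: 1 μM, DMSO, 468 kinases. Results reported as % control from RLU, normalised to DMSO and positive-control wells. Activity threshold: <35% control.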

RIPK1 = target: T2, RIPK1 (Homo sapiens, UniProt Q13546); details: RIPK1, 1 μM; read-out: % control
T2 sequence (Q13546 1-671): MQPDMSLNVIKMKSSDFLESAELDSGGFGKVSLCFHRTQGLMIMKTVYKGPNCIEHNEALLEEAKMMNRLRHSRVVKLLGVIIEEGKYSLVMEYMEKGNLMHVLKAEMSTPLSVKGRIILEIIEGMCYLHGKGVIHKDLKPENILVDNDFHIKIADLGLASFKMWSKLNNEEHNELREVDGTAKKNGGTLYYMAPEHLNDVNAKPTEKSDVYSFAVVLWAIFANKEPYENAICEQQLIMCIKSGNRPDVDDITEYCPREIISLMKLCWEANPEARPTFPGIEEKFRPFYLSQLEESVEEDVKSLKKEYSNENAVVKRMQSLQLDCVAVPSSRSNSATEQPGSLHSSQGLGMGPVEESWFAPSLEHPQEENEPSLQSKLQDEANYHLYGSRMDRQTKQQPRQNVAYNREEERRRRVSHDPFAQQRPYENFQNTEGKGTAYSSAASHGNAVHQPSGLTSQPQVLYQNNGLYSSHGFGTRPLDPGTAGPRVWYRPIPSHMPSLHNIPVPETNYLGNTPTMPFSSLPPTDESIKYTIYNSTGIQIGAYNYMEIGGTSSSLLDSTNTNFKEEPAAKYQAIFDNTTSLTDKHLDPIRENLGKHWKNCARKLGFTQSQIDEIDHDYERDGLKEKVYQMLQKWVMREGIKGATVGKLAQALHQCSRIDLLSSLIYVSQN
How it was run: as §1

AURKB = target: T3, AURKB (Homo sapiens, UniProt Q96GD4); details: read-out: % control
T3 construct: purchased KinomeScan®
T3 sequence (Q96GD4 whole entry): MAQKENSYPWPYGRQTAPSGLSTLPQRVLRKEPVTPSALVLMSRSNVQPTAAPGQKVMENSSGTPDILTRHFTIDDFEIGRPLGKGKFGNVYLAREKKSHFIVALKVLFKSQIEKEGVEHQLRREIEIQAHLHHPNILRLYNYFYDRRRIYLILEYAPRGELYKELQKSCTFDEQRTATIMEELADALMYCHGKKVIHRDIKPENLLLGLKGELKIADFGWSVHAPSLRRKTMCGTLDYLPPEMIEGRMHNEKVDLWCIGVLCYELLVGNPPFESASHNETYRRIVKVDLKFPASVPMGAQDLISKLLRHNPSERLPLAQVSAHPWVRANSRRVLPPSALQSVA
How it was run: as §1

TBK1 = target: T4, TBK1 (Homo sapiens, UniProt Q9UHD2); details: TBK1, 1 μM; read-out: % control
T4 sequence (Q9UHD2 1-729): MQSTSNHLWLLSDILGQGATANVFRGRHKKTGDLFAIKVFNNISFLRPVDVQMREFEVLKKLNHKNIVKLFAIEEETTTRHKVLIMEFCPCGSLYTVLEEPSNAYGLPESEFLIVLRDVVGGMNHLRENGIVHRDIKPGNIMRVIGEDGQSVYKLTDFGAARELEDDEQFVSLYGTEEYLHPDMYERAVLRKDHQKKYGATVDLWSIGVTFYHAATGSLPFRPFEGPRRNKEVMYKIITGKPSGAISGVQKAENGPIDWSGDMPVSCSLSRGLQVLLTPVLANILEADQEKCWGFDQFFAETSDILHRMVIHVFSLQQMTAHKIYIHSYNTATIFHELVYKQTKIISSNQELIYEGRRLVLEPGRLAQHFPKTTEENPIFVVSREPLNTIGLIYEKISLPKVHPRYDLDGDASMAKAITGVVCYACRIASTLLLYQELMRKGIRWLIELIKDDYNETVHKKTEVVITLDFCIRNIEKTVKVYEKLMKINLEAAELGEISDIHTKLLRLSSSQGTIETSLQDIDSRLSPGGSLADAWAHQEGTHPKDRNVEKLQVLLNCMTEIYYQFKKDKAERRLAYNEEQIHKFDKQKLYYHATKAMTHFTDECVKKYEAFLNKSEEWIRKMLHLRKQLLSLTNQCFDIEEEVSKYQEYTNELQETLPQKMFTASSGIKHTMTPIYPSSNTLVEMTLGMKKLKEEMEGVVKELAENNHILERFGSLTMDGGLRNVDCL
How it was run: as §1

CDK4-cyclinD1 = CDK4-cyclinD1 (Homo sapiens, UniProt P11802); details: CDK4-cyclinD1, 1 μM; read-out: % control
Sequence of CDK4-cyclinD1 (P11802 whole entry): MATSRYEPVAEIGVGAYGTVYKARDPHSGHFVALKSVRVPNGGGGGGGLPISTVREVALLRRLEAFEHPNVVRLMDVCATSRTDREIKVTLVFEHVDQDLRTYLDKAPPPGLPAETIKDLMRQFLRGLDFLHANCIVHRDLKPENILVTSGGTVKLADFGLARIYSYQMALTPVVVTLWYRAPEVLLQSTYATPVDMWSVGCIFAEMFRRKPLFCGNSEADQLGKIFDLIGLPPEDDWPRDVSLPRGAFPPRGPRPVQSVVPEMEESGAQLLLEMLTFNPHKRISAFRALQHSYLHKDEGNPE
Sequence of CDK4-cyclinD1 (P24385 whole entry partner): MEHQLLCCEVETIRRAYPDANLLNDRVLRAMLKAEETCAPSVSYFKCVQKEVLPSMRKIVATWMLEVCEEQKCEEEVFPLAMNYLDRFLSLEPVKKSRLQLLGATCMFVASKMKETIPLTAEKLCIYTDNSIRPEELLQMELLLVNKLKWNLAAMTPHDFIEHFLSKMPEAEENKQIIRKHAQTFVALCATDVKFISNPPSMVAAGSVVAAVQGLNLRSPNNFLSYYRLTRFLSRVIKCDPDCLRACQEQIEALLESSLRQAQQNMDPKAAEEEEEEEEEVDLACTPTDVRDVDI
How it was run: as §1

PIK3CA = target: T5, PIK3CA (Homo sapiens, UniProt P42336); details: read-out: % control
T5 construct: purchased KinomeScan® (panel service)
T5 sequence (P42336 whole entry): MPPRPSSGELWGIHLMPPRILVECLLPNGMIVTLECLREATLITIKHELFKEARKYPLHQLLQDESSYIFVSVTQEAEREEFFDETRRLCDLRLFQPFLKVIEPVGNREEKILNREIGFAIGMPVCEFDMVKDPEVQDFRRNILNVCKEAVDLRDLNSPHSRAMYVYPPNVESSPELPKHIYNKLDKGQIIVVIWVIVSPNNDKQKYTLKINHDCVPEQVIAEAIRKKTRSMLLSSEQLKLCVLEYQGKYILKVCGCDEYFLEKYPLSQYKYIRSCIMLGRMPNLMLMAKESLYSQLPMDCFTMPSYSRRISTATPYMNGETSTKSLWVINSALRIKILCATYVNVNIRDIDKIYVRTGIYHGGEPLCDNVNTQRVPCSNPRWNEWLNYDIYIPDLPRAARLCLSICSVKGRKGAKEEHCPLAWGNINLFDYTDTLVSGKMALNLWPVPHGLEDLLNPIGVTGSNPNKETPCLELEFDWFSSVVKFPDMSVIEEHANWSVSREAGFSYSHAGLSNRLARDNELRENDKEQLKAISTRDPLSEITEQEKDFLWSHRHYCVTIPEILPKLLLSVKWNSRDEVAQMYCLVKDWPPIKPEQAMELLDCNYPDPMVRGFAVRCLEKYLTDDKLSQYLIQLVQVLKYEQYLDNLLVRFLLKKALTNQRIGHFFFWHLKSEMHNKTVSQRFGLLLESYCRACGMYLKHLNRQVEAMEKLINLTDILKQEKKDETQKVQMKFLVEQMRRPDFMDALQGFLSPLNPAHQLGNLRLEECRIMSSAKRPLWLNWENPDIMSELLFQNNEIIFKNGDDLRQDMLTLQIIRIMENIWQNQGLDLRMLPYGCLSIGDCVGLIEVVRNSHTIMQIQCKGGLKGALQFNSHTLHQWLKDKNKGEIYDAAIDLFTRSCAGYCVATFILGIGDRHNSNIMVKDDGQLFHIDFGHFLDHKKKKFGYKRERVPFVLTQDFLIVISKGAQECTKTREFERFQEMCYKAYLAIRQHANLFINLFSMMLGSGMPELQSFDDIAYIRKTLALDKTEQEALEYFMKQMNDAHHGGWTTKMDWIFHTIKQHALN
How it was run: as §1

PHKG1 = PHKG1 (Homo sapiens, UniProt Q16816); details: PHKG1, 1 μM; read-out: % control
Sequence of PHKG1 (Q16816 whole entry): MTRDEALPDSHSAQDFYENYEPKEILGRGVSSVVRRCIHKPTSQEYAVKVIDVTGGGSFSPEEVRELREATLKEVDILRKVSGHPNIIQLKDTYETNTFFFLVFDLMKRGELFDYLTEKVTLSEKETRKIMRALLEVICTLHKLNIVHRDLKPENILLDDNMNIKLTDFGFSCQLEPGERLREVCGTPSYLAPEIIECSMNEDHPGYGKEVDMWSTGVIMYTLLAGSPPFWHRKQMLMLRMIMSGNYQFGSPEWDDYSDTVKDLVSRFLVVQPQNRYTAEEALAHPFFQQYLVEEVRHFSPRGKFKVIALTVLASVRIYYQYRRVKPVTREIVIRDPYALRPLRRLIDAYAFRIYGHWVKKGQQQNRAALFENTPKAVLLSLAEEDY
How it was run: as §1

CSF1R-autoinhibited = target: T6, CSF1R-autoinhibited (Homo sapiens, UniProt P07333); details: read-out: % control
T6 sequence (P07333 539-972 limits assumed): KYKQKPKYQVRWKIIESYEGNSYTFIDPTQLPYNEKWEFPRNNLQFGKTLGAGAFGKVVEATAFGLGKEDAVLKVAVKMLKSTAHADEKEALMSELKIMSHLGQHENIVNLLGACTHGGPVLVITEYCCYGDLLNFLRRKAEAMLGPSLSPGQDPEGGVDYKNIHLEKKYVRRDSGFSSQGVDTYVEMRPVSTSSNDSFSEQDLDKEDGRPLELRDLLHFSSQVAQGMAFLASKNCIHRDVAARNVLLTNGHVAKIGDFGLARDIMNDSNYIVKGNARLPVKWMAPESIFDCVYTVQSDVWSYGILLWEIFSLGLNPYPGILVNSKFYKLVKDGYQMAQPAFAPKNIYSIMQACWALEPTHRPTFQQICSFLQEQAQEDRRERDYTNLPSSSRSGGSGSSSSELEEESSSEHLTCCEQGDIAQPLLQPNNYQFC
How it was run: as §1

INSR = target: T7, INSR (Homo sapiens, UniProt P06213); details: read-out: % control
T7 construct: purchased KinomeScan®
T7 sequence (P06213 28-1382): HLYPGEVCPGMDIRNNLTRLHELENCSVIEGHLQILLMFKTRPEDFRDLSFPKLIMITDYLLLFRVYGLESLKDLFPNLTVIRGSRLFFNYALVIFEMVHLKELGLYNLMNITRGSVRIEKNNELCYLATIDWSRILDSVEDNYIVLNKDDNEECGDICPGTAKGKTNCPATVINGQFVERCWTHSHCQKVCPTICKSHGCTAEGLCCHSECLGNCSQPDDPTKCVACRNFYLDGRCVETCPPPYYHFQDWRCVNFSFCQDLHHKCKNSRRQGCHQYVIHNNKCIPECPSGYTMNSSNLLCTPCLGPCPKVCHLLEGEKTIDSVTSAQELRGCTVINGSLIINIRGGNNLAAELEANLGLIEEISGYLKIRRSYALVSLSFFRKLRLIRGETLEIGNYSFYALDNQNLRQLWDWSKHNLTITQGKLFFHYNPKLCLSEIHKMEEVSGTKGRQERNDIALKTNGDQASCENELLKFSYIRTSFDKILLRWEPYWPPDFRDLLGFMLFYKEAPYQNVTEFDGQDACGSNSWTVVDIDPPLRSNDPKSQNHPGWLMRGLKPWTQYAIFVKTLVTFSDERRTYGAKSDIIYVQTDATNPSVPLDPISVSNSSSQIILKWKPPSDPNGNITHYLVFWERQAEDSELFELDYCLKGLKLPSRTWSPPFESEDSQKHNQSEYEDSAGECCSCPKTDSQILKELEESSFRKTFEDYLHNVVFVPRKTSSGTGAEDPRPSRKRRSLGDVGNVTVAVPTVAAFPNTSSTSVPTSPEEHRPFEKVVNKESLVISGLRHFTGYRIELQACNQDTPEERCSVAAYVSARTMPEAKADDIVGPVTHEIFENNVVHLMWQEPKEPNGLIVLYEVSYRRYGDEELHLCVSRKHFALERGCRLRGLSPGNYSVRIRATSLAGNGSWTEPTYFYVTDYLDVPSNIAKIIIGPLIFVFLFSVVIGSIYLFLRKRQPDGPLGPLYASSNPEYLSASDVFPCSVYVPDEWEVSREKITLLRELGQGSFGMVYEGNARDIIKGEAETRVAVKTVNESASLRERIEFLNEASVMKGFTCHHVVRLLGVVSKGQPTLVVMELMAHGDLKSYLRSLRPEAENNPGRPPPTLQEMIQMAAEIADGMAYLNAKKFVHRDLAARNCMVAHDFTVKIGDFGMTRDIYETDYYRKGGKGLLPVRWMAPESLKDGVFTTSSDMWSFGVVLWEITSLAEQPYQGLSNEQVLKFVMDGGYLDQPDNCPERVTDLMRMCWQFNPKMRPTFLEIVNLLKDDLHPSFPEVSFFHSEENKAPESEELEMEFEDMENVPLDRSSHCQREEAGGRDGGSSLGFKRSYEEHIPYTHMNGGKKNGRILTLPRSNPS
How it was run: as §1

JNK3 = target: T8, JNK3 (Homo sapiens, UniProt P53779); details: JNK3, 1 μM; read-out: % control
T8 construct: purchased KinomeScan®
T8 sequence (P53779 whole entry): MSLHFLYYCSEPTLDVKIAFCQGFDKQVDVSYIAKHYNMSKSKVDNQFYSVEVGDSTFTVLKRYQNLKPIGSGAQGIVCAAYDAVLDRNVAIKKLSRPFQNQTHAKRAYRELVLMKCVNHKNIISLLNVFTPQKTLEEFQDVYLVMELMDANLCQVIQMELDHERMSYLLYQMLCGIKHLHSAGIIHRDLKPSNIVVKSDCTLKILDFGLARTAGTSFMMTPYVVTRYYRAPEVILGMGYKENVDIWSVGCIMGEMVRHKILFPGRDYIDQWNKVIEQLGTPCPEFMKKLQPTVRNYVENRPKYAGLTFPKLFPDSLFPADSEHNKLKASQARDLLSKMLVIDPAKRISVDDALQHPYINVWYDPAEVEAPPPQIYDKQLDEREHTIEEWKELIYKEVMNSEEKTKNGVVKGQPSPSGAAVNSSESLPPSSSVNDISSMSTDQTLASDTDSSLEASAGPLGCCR
How it was run: as §1

T1 sequence (P37023 22-503): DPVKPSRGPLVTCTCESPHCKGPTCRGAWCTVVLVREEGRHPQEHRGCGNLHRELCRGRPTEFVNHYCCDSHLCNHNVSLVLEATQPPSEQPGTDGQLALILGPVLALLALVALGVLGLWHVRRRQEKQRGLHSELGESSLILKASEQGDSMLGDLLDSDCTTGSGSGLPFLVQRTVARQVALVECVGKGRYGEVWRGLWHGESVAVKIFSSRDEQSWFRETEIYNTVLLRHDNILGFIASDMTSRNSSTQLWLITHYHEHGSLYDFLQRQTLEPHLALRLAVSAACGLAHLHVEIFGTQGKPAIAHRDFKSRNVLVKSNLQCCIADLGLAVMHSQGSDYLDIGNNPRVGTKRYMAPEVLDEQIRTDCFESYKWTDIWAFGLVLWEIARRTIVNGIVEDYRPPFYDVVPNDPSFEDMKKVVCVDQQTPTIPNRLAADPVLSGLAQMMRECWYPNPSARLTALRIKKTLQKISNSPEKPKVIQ

Structure (SMILES)	remaining binding at 1 µM (ACVRL1) [%]	remaining binding at 1 µM (RIPK1) [%]	remaining binding at 1 µM (AURKB) [%]	remaining binding at 1 µM (TBK1) [%]	remaining binding at 1 µM (CDK4-cyclinD1) [%]	remaining binding at 1 µM (PIK3CA) [%]	remaining binding at 1 µM (PHKG1) [%]	remaining binding at 1 µM (CSF1R-autoinhibited) [%]	remaining binding at 1 µM (INSR) [%]	remaining binding at 1 µM (JNK3) [%]
CNc1c(-c2ccc(C(=O)N3CCC(N4CCOCC4)CC3)cc2)cnc2[nH]cc(Cl)c12 [Compound 96, (4-(3-chloro-4-(methylamino)-1H-pyrrolo[2,3-b]pyridin-5-yl)phenyl)(4-morpholinopiperidin-1-yl)methanone]	100	44	53	91	73	100	86	49	71	0.35
O=C(c1ccc(-c2cnc3[nH]cc(Cl)c3c2NC2CCCC2)cc1)N1CCC(N2CCOCC2)CC1 [Compound 101, (4-(3-chloro-4-(cyclopentylamino)-1H-pyrrolo[2,3-b]pyridin-5-yl)phenyl)(4-morpholinopiperidin-1-yl)methanone]	100	47	100	90	100	99	87	3.2	68	7.6
CNc1c(-c2cnn([C@H]3CCN(C(C)=O)C[C@@H]3F)c2)cnc2[nH]cc(Cl)c12 [Compound 77, 1-((3S,4S)-4-(4-(3-chloro-4-(methylamino)-1H-pyrrolo[2,3-b]pyridin-5-yl)-1H-pyrazol-1-yl)-3-fluoropiperidin-1-yl)ethan-1-one]	100	19	24	57	74	100	100	30	53	1.9
